Measurements as given in patent US20140045823A1 (Neurocrine Biosciences, Inc., priority 2012, published 2014).

molecular target: T1, human GPR119 (Homo sapiens, UniProt Q8TDV5); assay: AlphaScreen cAMP assay in MIN6 cells stably transfected with human GPR119; assay type: cell-based; conditions: Min-6/hGPR119 cells, 45 min at room temperature
T1 construct: expression vector for human GPR119 cDNA (Acc. No. NP_848566); expressed in transfected cells; Min-6/hGPR119
T1 sequence (Q8TDV5 1-335): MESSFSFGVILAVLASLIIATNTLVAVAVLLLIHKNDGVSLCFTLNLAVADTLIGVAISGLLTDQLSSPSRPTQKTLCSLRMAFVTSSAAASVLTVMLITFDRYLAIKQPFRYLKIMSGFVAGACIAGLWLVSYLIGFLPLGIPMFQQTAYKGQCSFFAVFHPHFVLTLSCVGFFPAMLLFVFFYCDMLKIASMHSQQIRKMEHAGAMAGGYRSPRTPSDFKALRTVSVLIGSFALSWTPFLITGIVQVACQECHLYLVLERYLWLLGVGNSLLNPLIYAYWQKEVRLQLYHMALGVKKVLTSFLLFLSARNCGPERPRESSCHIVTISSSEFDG
Procedure, shortened: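 cAMP accumulation quantified by AlphaScreen after 45 min compound stimulation at about 20 °C. Stimulation buffer: pH 7.4 HEPES saline with 0.5 mM IBMX, 0.1% BSA, 1% DMSO final. Cells: MIN6 stably transfected with human GPR119, 10000/well, cultured 24 h beforehand.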

EC50	SMILES
237 nM	CC(C)(C)OC(=O)N1CCC(N(C(=O)c2cnc(-c3ccc(C(=O)N4CCCOCC4)cc3)nc2)C2CC2)CC1 [Example 178, 4-(Cyclopropyl-{2-[4-([1,4]oxazepane-4-carbonyl)-phenyl]-pyrimidine-5-carbonyl}-amino)-piperidine-1-carboxylic acid tert-butyl ester]
159 nM	CC(C)(C)OC(=O)N1CCC(N(C(=O)c2cnc(-c3ccc(C(=O)N4CC(F)(F)C4)cc3F)nc2)C2CC2)CC1 [Example 147, 4-(Cyclopropyl-{2-[4-(3,3-difluoro-azetidine-1-carbonyl)-2-fluoro-phenyl]-pyrimidine-5-carbonyl}-amino)-piperidine-1-carboxylic acid tert-butyl ester]
237 nM	CC(C)(C)OC(=O)N1CCC(N(C(=O)c2cnc(-c3ccc(C(=O)NCC4CCCO4)cc3)nc2)C2CC2)CC1 (centres unmarked) [Example 244, 4-[Cyclopropyl-(2-{4-[(tetrahydro-furan-2-ylmethyl)-carbamoyl]-phenyl)-pyrimidine-5-carbonyl)-amino]-piperidine-1-carboxylic acid tert-buyl ester]
216 nM	CN(CC#N)C(=O)Cc1ccc(-c2ncc(C(=O)N(C3CC3)C3CCN(C(=O)OC(C)(C)C)CC3)cn2)cc1 [Example 218, 4-[(2-{4-[(Cyanomethyl-methyl-carbamoyl)-methyl]-phenyl}-pyrimidine-5-carbonyl)-cyclopropyl-amino]-piperidine-1-carboxylic acid tert-butyl ester]
183 nM	CN(CCOCC1CC1)C(=O)c1ccc(-c2ncc(C(=O)N(C3CC3)C3CCN(C(=O)OC(C)(C)C)CC3)cn2)cc1 [Example 220, 4-[Cyclopropyl-(2-{4-[(2-cyclopropylmethoxy-ethyl)-methyl-carbamoyl]-phenyl}-pyrimidine-5-carbonyl)-amino]-piperidine-1-carboxylic acid tert-butyl ester]
261 nM	CC(C)(C)OC(=O)N1CCC(N(C(=O)c2cnc(-c3ccc(C(=O)NC[C@H]4CCCC[C@H]4O)c(F)c3)nc2)C2CC2)CC1 (stereo in doubt) [Example 168, 4-[Cyclopropyl-(2-{3-fluoro-4-[(2-hydroxy-cyclohexylmethyl)-carbamoyl]-phenyl}-pyrimidine-5-carbonyl)-amino]-piperidine-1-carboxylic acid tert-butyl ester]
486 nM	COCCN(C)C(=O)Cc1ccc(-c2ncc(C(=O)N(C3CC3)C3CCN(C(=O)OC(C)(C)C)CC3)cn2)cc1 [Example 195, 4-{Cyclopropyl-[2-(4-{[(2-methoxy-ethyl)-methyl-carbamoyl]-methyl}-phenyl)-pyrimidine-5-carbonyl]-amino}-piperidine-1-carboxylic acid tert-butyl ester]
325 nM	CO[C@@H]1CCN(C(=O)Cc2ccc(-c3ncc(C(=O)N(C4CC4)C4CCN(C(=O)OC(C)(C)C)CC4)cn3)cc2)C1 [Example 194, 4-[Cyclopropyl-(2-{4-[2-(3-methoxy-pyrrolidin-1-yl)-2-oxo-ethyl]-phenyl}-pyrimidine-5-carbonyl)-amino]-piperidine-1-carboxylic acid tert-butyl ester]
422 nM	CC(C)(C)OC(=O)N1CCC(N(C(=O)c2cnc(-c3ccc(C(=O)NCc4cccnn4)c(F)c3)nc2)C2CC2)CC1 [Example 232, 4-[Cyclopropyl-(2-{3-fluoro-4-[(pyridazin-3-ylmethyl)-carbamoyl]-phenyl}-pyrimidine-5-carbonyl)-amino]-piperidine-1-carboxylic acid tert-butyl ester]
185 nM	CC(C)(C)OC(=O)N1CCC(N(C(=O)c2cnc(-c3ccc(C(=O)NCC4CCCCO4)cc3)nc2)C2CC2)CC1 (centres unmarked) [Example 225, 4-[Cyclopropyl-(2-{4-[(tetrahydro-pyran-2-ylmethyl)-carbamoyl]-phenyl}-pyrimidine-5-carbonyl)-amino]-piperidine-1-carboxylic acid tert-butyl ester]
122 nM	CC(C)(C)OC(=O)N1CCC(N(C(=O)c2cnc(-c3ccc(C(=O)N4CC(F)(F)C4)cc3)nc2)C2CC2)CC1 [Example 187, 4-(Cyclopropyl-{2-[4-(3,3-difluoro-azetidine-1-carbonyl)-phenyl]-pyrimidine-5-carbonyl}-amino)-piperidine-1-carboxylic acid tert-butyl ester]
634 nM	CN(CC(C)(C)O)C(=O)c1ccc(-c2ncc(C(=O)N(C3CC3)C3CCN(C(=O)OC(C)(C)C)CC3)cn2)cc1 [Example 223, 4-[Cyclopropyl-(2-{4-[(2-hydroxy-2-methyl-propyl)-methyl-carbamoyl]-phenyl}-pyrimidine-5-carbonyl)-amino]-piperidine-1-carboxylic acid tert-butyl ester]
395 nM	Cc1cnc(CNC(=O)Cc2ccc(-c3ncc(C(=O)N(C4CC4)C4CCN(C(=O)OC(C)(C)C)CC4)cn3)cc2)s1 [Example 199, 4-{Cyclopropyl-[2-(4-{[(5-methyl-thiazol-2-ylmethyl)-carbamoyl]-methyl}-phenyl)-pyrimidine-5-carbonyl]-amino}-piperidine-1-carboxylic acid tert-buyl ester]

The next lines start with the compound.

SMILES	EC50
CC(C)(C)OC(=O)N1CCC(N(C(=O)c2cc(-c3ccc(C#N)c(F)c3)no2)C2CC2)CC1 [Example 43, 4-{[3-(4-Cyano-3-fluoro-phenyl)-isoxazole-5-carbonyl]-cyclopropyl-amino}-piperidine-1-carboxylic acid tert-butyl ester]	14 nM
CC(C)(C)OC(=O)N1CCC(N(C(=O)c2cnc(-c3cnco3)c(F)c2)C2CC2)CC1 [Example 14, 4-[Cyclopropyl-(5-fluoro-6-oxazol-5-yl-pyridine-3-carbonyl)-amino]-piperidine-1-carboxylic acid tert-butyl ester]	145 nM
CC(C)(C)OC(=O)N1CCC(N(C(=O)c2coc(-c3ccc(S(C)(=O)=O)cc3F)n2)C2CC2)CC1 [Example 25]	97 nM
CC(C)(C)OC(=O)N1CCC(N(C(=O)c2cnc(-c3cncnc3)nc2)C2CC2)CC1 [Example 71, 4-[([2,5′]Bipyrimidinyl-5-carbonyl)-cyclopropyl-amino]-piperidine-1-carboxylic acid tert-butyl ester]	90 nM
CC(C)OC(=O)N1CCC(N(C(=O)c2cnc(-n3ccnc3)nc2)C2CC2)CC1 [Example 51, 4-[Cyclopropyl-(2-imidazol-1-yl-pyrimidine-5-carbonyl)-amino]-piperidine-1-carboxylic acid isopropyl ester]	140 nM
COc1cccc(-c2ncc(C(=O)N(C3CC3)C3CCN(C(=O)OC(C)(C)C)CC3)cn2)c1 [Example 74, 4-{Cyclopropyl-[2-(3-methoxy-phenyl)-pyrimidine-5-carbonyl]-amino}-piperidine-1-carboxylic acid tert-butyl ester]	1010 nM
CCc1nccn1-c1ncc(C(=O)N(C2CC2)C2CCN(C(=O)OC(C)(C)C)CC2)cn1 [Example 97, 4-{Cyclopropyl-[2-(2-ethyl-imidazol-1-yl)-pyrimidine-5-carbonyl]-amino}-piperidine-1-carboxylic acid tert-butyl ester]	59 nM
CC(C)(C)OC(=O)N1CCC(N(C(=O)c2noc(-c3ccc(C#N)cc3F)n2)C2CC2)CC1 [Example 18, 4-{[5-(4-Cyano-2-fluoro-phenyl)-[1,2,4]oxadiazole-3-carbonyl]-cyclopropyl-amino}-piperidine-1-carboxylic acid tert-butyl ester]	5 nM
CC(C)(C)OC(=O)N1CCC(N(C(=O)c2cnc(-c3ccc(C(=O)NCC4CCOC4)c(F)c3)nc2)C2CC2)CC1 (centres unmarked) [Example 131, 4-[Cyclopropyl-(2-{3-fluoro-4-[(tetrahydro-furan-3-ylmethyl)-carbamoyl]-phenyl}-pyrimidine-5-carbonyl)-amino]-piperidine-1-carboxylic acid tert-butyl ester]	175 nM
Cc1noc(C)c1-c1ccc(C(=O)N(C2CC2)C2CCN(C(=O)OC(C)(C)C)CC2)cn1 [Example 11, 4-{Cyclopropyl-[6-(3,5-dimethyl-isoxazol-4-yl)-pyridine-3-carbonyl]-amino}-piperidine-1-carboxylic acid tert-butyl ester]	136 nM
CN(CCOCC1CC1)C(=O)c1ccc(-c2ncc(C(=O)N(C3CC3)C3CCN(C(=O)OC(C)(C)C)CC3)cn2)cc1F [Example 124, 4-[Cyclopropyl-(2-{4-[(2-cyclopropylmethoxy-ethyl)-methyl-carbamoyl]-3-fluoro-phenyl}-pyrimidine-5-carbonyl)-amino]-piperidine-1-carboxylic acid tert-butyl ester]	102 nM
Cn1ccc(CNC(=O)c2ccc(-c3ncc(C(=O)N(C4CC4)C4CCN(C(=O)OC(C)(C)C)CC4)cn3)cc2F)n1 [Example 136, 4-[Cyclopropyl-(2-{3-fluoro-4-[(1-methyl-1H-pyrazol-3-ylmethyl)-carbamoyl]-phenyl}-pyrimidine-5-carbonyl)-amino]-piperidine-1-carboxylic acid tert-butyl ester]	194 nM
CC(C)(C)OC(=O)N1CCC(N(C(=O)c2cc(-c3ccc(C#N)cc3)no2)C2CC2)CC1 [Example 41, 4-{[3-(4-Cyano-phenyl)-isoxazole-5-carbonyl]-cyclopropyl-amino}-piperidine-1-carboxylic acid tert-butyl ester]	11 nM
